Source: US8178570B2, “Tie-2 modulators and methods of use” (Exelixis, Inc., priority 2003, dated 2012)

Target: Tie-2 (Homo sapiens, UniProt Q02763)
Assay: Tie-2 tyrosine kinase activity: kinase-dependent ATP consumption (pEY substrate, luciferase/luciferin chemiluminescence) or 33P-ATP incorporation into substrate
Format: biochemical
Conditions: Tie-2 (human enzyme) inhibition, Table 2, class symbols A-D
Protocol: One measure of inhibition is Ki. […] The Ki for a compound is determined from the IC50 based on three assumptions. First, only one compound molecule binds to the enzyme and there is no cooperativity. […] Third, the enzymatic rate of the enzyme-inhibitor complex is zero. The rate (i.e., compound concentration) data are fitted to the equation:
[formula] where V is the observed rate, Vmax, is the rate of the free enzyme, I0 is the inhibitor concentration, E0 is the enzyme concentration, and Kd is the dissociation constant of the enzyme-inhibitor complex.
Tyrosine kinase activity is determined by 1) measurement of kinase-dependent ATP consumption by in the presence of a generic substrate such as polyglutamine, tyrosine (pEY), by luciferase/luciferin-mediated chemiluminescence or; 2) incorporation of radioactive phosphate derived from ^33P-ATP into a generic substrate which has been absorbed onto the well surface of polystyrene microtiter plates. Phosphorylated substrate products are quantified by scintillation spectrometry.
Inhibition is indicated as IC50 with following key: A=IC50 less than 50 nM, B=IC50 greater than 50 nM, but less than or equal to 1000 nM, C=IC50 greater than 1000 nM, but less than 10,000 nM, and D=IC50 10,000 nM or greater. The abbreviation for human enzyme, Tie-2, is defined as tyrosine kinase with immunoglobulin and EGF repeats.

Sequence of Tie-2 (Q02763 23-1124): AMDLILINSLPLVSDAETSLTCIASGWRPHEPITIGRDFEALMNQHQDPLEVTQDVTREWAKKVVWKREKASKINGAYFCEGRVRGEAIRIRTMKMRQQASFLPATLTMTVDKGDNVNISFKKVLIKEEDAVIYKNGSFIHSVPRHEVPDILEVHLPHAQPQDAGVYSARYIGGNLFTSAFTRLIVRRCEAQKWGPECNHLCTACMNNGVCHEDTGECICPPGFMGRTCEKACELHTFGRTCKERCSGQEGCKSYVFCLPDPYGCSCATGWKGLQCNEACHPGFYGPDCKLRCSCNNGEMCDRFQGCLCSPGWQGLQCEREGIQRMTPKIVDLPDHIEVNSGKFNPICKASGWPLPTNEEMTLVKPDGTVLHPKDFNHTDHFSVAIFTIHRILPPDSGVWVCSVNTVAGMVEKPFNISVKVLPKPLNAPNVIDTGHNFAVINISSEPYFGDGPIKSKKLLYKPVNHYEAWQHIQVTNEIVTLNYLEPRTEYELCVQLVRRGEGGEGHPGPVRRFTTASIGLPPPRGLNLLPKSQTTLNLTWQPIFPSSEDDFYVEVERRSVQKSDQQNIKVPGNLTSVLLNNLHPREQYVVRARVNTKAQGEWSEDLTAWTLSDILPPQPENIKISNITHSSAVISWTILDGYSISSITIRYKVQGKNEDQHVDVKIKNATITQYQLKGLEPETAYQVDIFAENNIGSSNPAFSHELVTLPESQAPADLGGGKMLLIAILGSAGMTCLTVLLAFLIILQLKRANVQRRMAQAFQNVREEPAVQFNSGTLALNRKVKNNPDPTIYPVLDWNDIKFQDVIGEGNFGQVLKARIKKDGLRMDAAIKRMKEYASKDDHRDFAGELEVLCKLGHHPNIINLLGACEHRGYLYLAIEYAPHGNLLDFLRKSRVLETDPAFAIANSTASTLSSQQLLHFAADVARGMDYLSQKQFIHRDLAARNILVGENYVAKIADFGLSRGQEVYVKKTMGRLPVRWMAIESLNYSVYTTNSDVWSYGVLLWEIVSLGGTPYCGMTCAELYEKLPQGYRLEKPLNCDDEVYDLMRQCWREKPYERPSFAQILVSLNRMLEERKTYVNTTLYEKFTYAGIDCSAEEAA

| SMILES | IC50 [nM] |
| --- | --- |
| COc1ccc(-c2nc(-c3ccccc3)nn2CC(=O)NC2CCCC2)cc1Cl [Entry 33, 2-{5-[3-chloro-4-(methyloxy)phenyl]-3-phenyl-1H-1,2,4-triazol-1-yl}-N-cyclopentylacetamide] | ≥ 10000 |
| COc1ccc(-c2nc(-c3ccncc3)nn2CCNC(=O)Cc2cccc3ccccc23)cc1Cl [Entry 34, N-(2-{5-[3-chloro-4-(methyloxy)phenyl]-3-pyridin-4-yl-1H-1,2,4-triazol-1-yl}ethyl)-2-naphthalen-1-ylacetamide] | 1000 to 10000 |
| COc1ccc(-c2nc(-c3ccncc3)n(CCN(C(=O)Cc3cccc4ccccc34)C(C)C)n2)cc1Cl [Entry 35, N-(2-{3-[3-chloro-4-(methyloxy)phenyl]-5-pyridin-4-yl-1H-1,2,4-triazol-1-yl}ethyl)-N-(1-methylethyl)-2-naphthalen-1-ylacetamide] | ≥ 10000 |
| COc1ccc(-c2nc(-c3ccncc3)nn2CCN(C(=O)Cc2cccc3ccccc23)C2CCCCC2)cc1Cl [Entry 36, N-(2-{5-[3-chloro-4-(methyloxy)phenyl]-3-pyridin-4-yl-1H-1,2,4-triazol-1-yl}ethyl)-N-cyclohexyl-2-naphthalen-1-ylacetamide] | < 50 |
| COc1ccc(-c2nc(-c3ccncc3)n(CCN(C(=O)Cc3cccc4ccccc34)C3CCCCC3)n2)cc1Cl [Entry 37, N-(2-{3-[3-chloro-4-(methyloxy)phenyl]-5-pyridin-4-yl-1H-1,2,4-triazol-1-yl}ethyl)-N-cyclohexyl-2-naphthalen-1-ylacetamide] | 50 to 1000 |
| COc1ccc(-c2nc(-c3ccncc3)n(CCN(C(=O)Cc3cccc4ccccc34)C3CC3)n2)cc1Cl [Entry 38, N-(2-{3-[3-chloro-4-(methyloxy)phenyl]-5-pyridin-4-yl-1H-1,2,4-triazol-1-yl}ethyl)-N-cyclopropyl-2-naphthalen-1-ylacetamide] | 50 to 1000 |
| COc1ccc(-c2nc(-c3ccncc3)nn2CCN(C(=O)Cc2cccc3ccccc23)C2CCCC2)cc1 [Entry 39, N-cyclopentyl-N-(2-{5-[4-(methyloxy)phenyl]-3-pyridin-4-yl-1H-1,2,4-triazol-1-yl}ethyl)-2-naphthalen-1-ylacetamide] | < 50 |
| COc1ccc(-c2nc(-c3ccncc3)n(CCN(C(=O)Cc3cccc4ccccc34)C3CCCC3)n2)cc1 [Entry 40, N-cyclopentyl-N-(2-{3-[4-(methyloxy)phenyl]-5-pyridin-4-yl-1H-1,2,4-triazol-1-yl}ethyl)-2-naphthalen-1-ylacetamide] | 1000 to 10000 |
| COc1ccc(-c2nc(-c3ccncc3)nn2CCN(C(=O)Cc2cccc3ccccc23)C2CCCC2)cc1OC [Entry 41, N-(2-{5-[3,4-bis(methyloxy)phenyl]-3-pyridin-4-yl-1H-1,2,4-triazol-1-yl}ethyl)-N-cyclopentyl-2-naphthalen-1-ylacetamide] | < 50 |
| COc1ccc(-c2nc(-c3ccncc3)n(CCN(C(=O)Cc3cccc4ccccc34)C3CCCC3)n2)cc1OC [Entry 42, N-(2-{3-[3,4-bis(methyloxy)phenyl]-5-pyridin-4-yl-1H-1,2,4-triazol-1-yl}ethyl)-N-cyclopentyl-2-naphthalen-1-ylacetamide] | 50 to 1000 |
| Cc1nc(-c2ccncc2)nn1CCN(C(=O)Cc1cccc2ccccc12)C1CCCC1 [Entry 43, N-cyclopentyl-N-[2-(5-methyl-3-pyridin-4-yl-1H-1,2,4,-triazol-1-yl)ethyl]-2-naphthalen-1-ylacetamide] | < 50 |
| O=C(Cc1cccc2ccccc12)N(CCn1cnc(-c2ccncc2)n1)C1CCCC1 [Entry 44, N-cyclopentyl-2-naphthalen-1-yl-N-[2-(3-pyridin-4-yl-1H-1,2,4-triazol-1-yl)ethyl]acetamide] | < 50 |
| O=C(Cc1cccc2ccccc12)N(CCn1nc(-c2ccncc2)nc1-c1cccc(C(F)(F)F)c1)C1CCCC1 [Entry 45, N-cyclopentyl-2-naphthalen-1-yl-N-(2-{3-pyridin-4-yl-5-[3-(trifluoromethyl)phenyl]-1H-1,2,4-triazol-1-yl}ethyl)acetamide] | < 50 |
| O=C(Cc1cccc2ccccc12)N(CCn1nc(-c2cccc(C(F)(F)F)c2)nc1-c1ccncc1)C1CCCC1 [Entry 46, N-cyclopentyl-2-naphthalen-1-yl-N-(2-{5-pyridin-4-yl-3-[3-(trifluoromethyl)phenyl]-1H-1,2,4-triazol-1-yl}ethyl)acetamide] | ≥ 10000 |
| O=C(Cc1cccc2ccccc12)N(CCn1nc(-c2ccncc2)nc1-c1cc(Cl)cc(Cl)c1)C1CCCC1 [Entry 47, N-cyclopentyl-N-{2-[5-(3,5-dichlorophenyl)-3-pyridin-4-yl-1H-1,2,4-triazol-1-yl]ethyl}-2-naphthalen-1-ylacetamide] | < 50 |
| COc1ccc(-c2nc(-c3ccncc3)nn2CCN(C(=O)Cc2ccc3ccccc3c2)C2CCCC2)cc1Cl [Entry 48, N-(2-{5-[3-chloro-4-(methyloxy)phenyl]-3-pyridin-4-yl-1H-1,2,4-triazol-1-yl}ethyl)-N-cyclopentyl-2-naphthalen-2-ylacetamide] | ≥ 10000 |
| O=C(Cc1cccc2ccccc12)N(CCc1n[nH]c(-c2ccncc2)n1)C1CCCC1 [Entry 49, N-cyclopentyl-2-naphthalen-1-yl-N-[2-(5-pyridin-4-yl-1H-1,2,4-triazol-3-yl)ethyl]acetamide] | < 50 |
| O=C(Cc1cccc2ccccc12)N(CCn1nc(-c2ccncc2)nc1-c1ccccc1)C1CCCC1 [Entry 50, N-cyclopentyl-2-naphthalen-1-yl-N-[2-(5-phenyl-3-pyridin-4-yl-1H-1,2,4-triazol-1-yl)ethyl]acetamide] | < 50 |
| O=C(Cc1cccc2ccccc12)N(CCn1nc(-c2ccccc2)nc1-c1ccncc1)C1CCCC1 [Entry 51, N-cyclopentyl-2-naphthalen-1-yl-N-[2-(3-phenyl-5-pyridin-4-yl-1H-1,2,4-triazol-1-yl)ethyl]acetamide] | 1000 to 10000 |
| O=C(Cc1cccc2ccccc12)N(CCc1nc(-c2ccncc2)no1)C1CCCC1 [Entry 52, N-cyclopentyl-2-naphthalen-1-yl-N-[2-(3-pyridin-4-yl-1,2,4-oxadiazol-5-yl)ethyl]acetamide] | 50 to 1000 |
| COc1ccc(-c2nc(-c3ccnc(Cl)c3)nn2CCN(C(=O)Cc2cccc3ccccc23)C2CCCC2)cc1Cl [Entry 53, N-{2-[5-[3-chloro-4-(methyloxy)phenyl]-3-(2-chloropyridin-4-yl)-1H-1,2,4-triazol-1-yl]ethyl}-N-cyclopentyl-2-naphthalen-1-ylacetamide] | ≥ 10000 |
| COc1ccc(-c2nc(-c3ccncc3)[nH]c2CCN(C(=O)Cc2cccc3ccccc23)C2CCCC2)cc1 [Entry 54, N-cyclopentyl-N-(2-{4-[4-(methyloxy)phenyl]-2-pyridin-4-yl-1H-imidazol-5-yl}ethyl)-2-naphthalen-1-ylacetamide] | 50 to 1000 |
| COc1ccc(-c2nc(-c3ccncc3)n(CCN(C(=O)Nc3cccc4ccccc34)C3CCCC3)n2)cc1Cl [Entry 55, N-(2-{3-[3-chloro-4-(methyloxy)phenyl]-5-pyridin-4-yl-1H-1,2,4-triazol-1-yl}ethyl)-N-cyclopentyl-N′-naphthalen-1-ylurea] | ≥ 10000 |
| O=C(Cc1cccc2ccccc12)N(CCn1nc(-c2ccncc2)nc1-c1cccc(F)c1)C1CCCC1 [Entry 56, N-cyclopentyl-N-{2-[5-(3-fluorophenyl)-3-pyridin-4-yl-1H-1,2,4-triazol-1-yl]ethyl}-2-naphthalen-1-ylacetamide] | < 50 |
| O=C(Cc1cccc2ccccc12)N(CCn1nc(-c2cccc(F)c2)nc1-c1ccncc1)C1CCCC1 [Entry 57, N-cyclopentyl-N-{2-[3-(3-fluorophenyl)-5-pyridin-4-yl-1H-1,2,4-triazol-1-yl]ethyl}-2-naphthalen-1-ylacetamide] | 1000 to 10000 |
| O=C(Cc1cccc2ccccc12)N(CCn1nc(-c2ccncc2)nc1-c1cccc(Cl)c1)C1CCCC1 [Entry 58, N-{2-[5-(3-chlorophenyl)-3-pyridin-4-yl-1H-1,2,4-triazol-1-yl]ethyl}-N-cyclopentyl-2-naphthalen-1-ylacetamide] | < 50 |
| O=C(Cc1cccc2ccccc12)N(CCn1nc(-c2cccc(Cl)c2)nc1-c1ccncc1)C1CCCC1 [Entry 59, N-{2-[3-(3-chlorophenyl)-5-pyridin-4-yl-1H-1,2,4-triazol-1-yl]ethyl}-N-cyclopentyl-2-naphthalen-1-ylacetamide] | 1000 to 10000 |
| O=C(Cc1cccc2ccccc12)N(CCn1nc(-c2ccncc2)nc1C1CCNCC1)C1CCCC1 [Entry 60, N-cyclopentyl-2-naphthalen-1-yl-N-[2-(5-piperidin-4-yl-3-pyridin-4-yl-1H-1,2,4-triazol-1-yl)ethyl]acetamide] | < 50 |
| O=C(Cc1cccc2ccccc12)N(CCn1nc(-c2ccncc2)nc1-c1ccccc1Cl)C1CCCC1 [Entry 61, N-{2-[5-(2-chlorophenyl)-3-pyridin-4-yl-1H-1,2,4-triazol-1-yl]ethyl}-N-cyclopentyl-2-naphthalen-1-ylacetamide] | < 50 |
| O=C(Cc1cccc2ccccc12)N(CCn1nc(-c2ccccc2Cl)nc1-c1ccncc1)C1CCCC1 [Entry 62, N-{2-[3-(2-chlorophenyl)-5-pyridin-4-yl-1H-1,2,4-triazol-1-yl]ethyl}-N-cyclopentyl-2-naphthalen-1-ylacetamide] | 1000 to 10000 |
